Drawing on patent US20240277860A1, “CAMPTOTHECIN PEPTIDE CONJUGATES” (priority 2019, published 2024), this text covers IC50 for 1 compound.

What all share (assay type): cell-based
Test [1] relates to renal carcinoma cells (786-O). As to the kind of experiment: In vitro potency, CellTiter-Glo growth inhibition, 786-O. The settings on record: Homo sapiens, 786-0; camptothecin free drugs; 96 h, CellTiter-Glo; read-out: IC50 786-O. On the procedure: (§1) In vitro potency was assessed on multiple cancer cell lines. All cell lines were authenticated by STR profiling at IDEXX Bioresearch and cultured for no more than 2 months after resuscitation. Cells cultured in log-phase growth were seeded for 24 hours in 96-well plates containing 150 μl RPMI 1640 supplemented with 20% FBS. Serial dilutions of antibody-drug conjugates in cell culture media were prepared at 4× working concentrations, and 50 μl of each dilution was added to the 96-well plates. Following addition of test articles, cells were incubated with test articles for 4 days at 37° C. After 96 hours, growth inhibition was assessed by CellTiter-Glo® (Promega, Madison, WI) and luminescence was measured on a plate reader. The IC50 value, determined in triplicate, is defined here as the concentration that results in 50% reduction in cell growth relative to untreated controls.
(§2) In the following Tables IC50 values for ADCs and campthothecin free drugs are given in ng/mL and […] concentrations, respectively. Cell viability was determined by CellTiter-Glo staining after 96 h exposure to ADC. ND=Not Determined. Ag1 is an antibody targeting a ubiquitous and readily internalizable antigen on cancer cells.
On the technique in general: ATP-based viability assays read luminescence as a measure of living cells.

Test [2] has as its system pancreatic cancer cells (BxPC3). As to the kind of experiment: In vitro potency, CellTiter-Glo growth inhibition, BxPC3. The settings on record: Homo sapiens, BXPC-3; camptothecin free drugs; 96 h, CellTiter-Glo; read-out: IC50 BxPC3. On the procedure: as §1, §2
The test system of test [3] is multiple myeloma cells (MM.1R). As to the kind of experiment: In vitro potency, CellTiter-Glo growth inhibition, MM.1R. The settings on record: camptothecin free drugs, 96 h, CellTiter-Glo, read-out: IC50 MM.1R. On the procedure: as §1, §2
Test [4] has as its system Burkitt's lymphoma cells (Ramos). Nature of the test: In vitro potency, CellTiter-Glo growth inhibition, Ramos. The settings on record: Homo sapiens, camptothecin free drugs, 96 h, CellTiter-Glo, read-out: IC50 Ramos. Here is the method: as §1, §2
Test [5] deals with B-lymphocyte cancer cells (SU-DHL-4). As to the kind of experiment: In vitro potency, CellTiter-Glo growth inhibition, SU-DHL-4. The settings on record: Homo sapiens, SU-DHL-4; camptothecin free drugs; 96 h, CellTiter-Glo; read-out: IC50 SU-DHL-4. On the procedure: as §1, §2
The subject of test [6] is MDR(−) acute promyelocytic leukemia cells (HL-60). As to the kind of experiment: In vitro potency, CellTiter-Glo growth inhibition, HL-60. The settings on record: Homo sapiens, HL-60; camptothecin free drugs; 96 h, CellTiter-Glo; read-out: IC50 HL-60. Here is the method:
as §1, §2

In test [7] the test system is MDR(+) acute promyelocytic leukemia cells (HL60/RV). Nature of the test: In vitro potency, CellTiter-Glo growth inhibition, HL60/RV. The settings on record: Homo sapiens, HL-60; camptothecin free drugs; 96 h, CellTiter-Glo; read-out: IC50 HL60/RV. On the procedure: as §1, §2
For test [8], the system named is B-lymphocyte cancer cells (U266). As to the kind of experiment: In vitro potency, CellTiter-Glo growth inhibition, U-266. The settings on record: Homo sapiens, U-266; camptothecin free drugs; 96 h, CellTiter-Glo; read-out: IC50 U-266. On the procedure: as §1, §2
Test [9] relates to melanoma cells (SK-MEL-5). Nature of the test: In vitro potency, CellTiter-Glo growth inhibition, SK-MEL-5. The settings on record: Homo sapiens, SK-MEL-5; camptothecin free drugs; 96 h, CellTiter-Glo; read-out: IC50 SK-MEL-5. Here is the method:
as §1, §2

In test [10] the test system is Hodgkin's lymphoma cells (L540cy). As to the kind of experiment: In vitro potency, CellTiter-Glo growth inhibition, L540cy. The settings on record: camptothecin free drugs, 96 h, CellTiter-Glo, read-out: IC50 L540cy. On the procedure: as §1, §2
Test [11] has as its system acute myeloid leukemia cells (MOLM13). Nature of the test: In vitro potency, CellTiter-Glo growth inhibition, MOLM-13. The settings on record: Homo sapiens, MOLM-13; camptothecin free drugs; 96 h, CellTiter-Glo; read-out: IC50 MOLM-13. On the procedure: as §1, §2

Each structure is given as a SMILES string.

For `CC[C@@]1(O)C(=O)OCc2c1cc1n(c2=O)Cc2c-1nc1cc3c(cc1c2CNC(=O)[C@@H](N)Cc1c[nH]c2ccccc12)OCO3` [Compound 3n], the IC50 in [1] stood at 0.083 µM; in test [2] it was 0.143 µM; in test [3] it was 0.074 µM; in test [4], 0.018 µM; in [5], 0.027 µM; in test [6], 0.526 µM. For the same compound, the IC50 in test [7] was > 1 µM; in [8], 0.062 µM; in test [9] it was 0.33 µM; in test [10] it was 0.185 µM; in test [11], 0.08 µM.
